EC50 and Activity data for eight compounds are collected here from ChEMBL document CHEMBL3045444, “Synthesis of Stereoisomers of Ipconazole and Their Fungicidal and Plant Growth Inhibitory Activities” (J Pestic Sci, 1997).

For data set [1], the system named is Pyricularia oryzae. Put plainly: Antifungal activity against Magnaporthe oryzae after 3 days. In kind it is functional, organism-based.
In data set [2] the test system is Bipolaris oryzae. Put plainly: Antifungal activity against Bipolaris oryzae after 3 days. In kind it is functional, organism-based.
Data set [3] relates to Fusarium fujikuroi. Put plainly: Antifungal activity against Fusarium fujikuroi after 3 days. In kind it is functional, organism-based.
Data set [4] deals with Fusarium fujikuroi. Put plainly: Antifungal activity against Fusarium fujikuroi infected in rice plant assessed as control of bakanae disease at 75 ug/ml treated as seed treatment after 2 weeks. In kind it is functional.
In data set [5] the test system is Fusarium fujikuroi. Put plainly: Antifungal activity against Fusarium fujikuroi infected in rice plant assessed as control of bakanae disease at 300 ug/ml treated as seed treatment after 2 weeks. In kind it is functional.
Data set [6] deals with Oryza sativa. Put plainly: Growth inhibition of Oryza sativa (rice) assessed as growth rate by measuring first sheath length at 250 ug/ml treated as seed treatment 24 hr before emergence measured after 10 days relative to control. It counts as organism-based. Set-up: scale not given: the % may be the effect or the level left. Conditions: in vivo, 240 h.
In data set [7] the test system is Bipolaris oryzae. Put plainly: Antifungal activity against Bipolaris oryzae infected in fifth-leaf stage of rice plant assessed as control of brown spot disease at 9 ug/ml treated as foliar application after 6 days. It counts as functional.
Data set [8] has as its system Bipolaris oryzae. Put plainly: Antifungal activity against Bipolaris oryzae infected in fifth-leaf stage of rice plant assessed as control of brown spot disease at 38 ug/ml treated as foliar application after 6 days. In kind it is functional.
Data set [9] concerns Bipolaris oryzae. Put plainly: Antifungal activity against Bipolaris oryzae infected in fifth-leaf stage of rice plant assessed as control of brown spot disease at 150 ug/ml treated as foliar application after 6 days. It counts as functional.
Data set [10] relates to Fusarium fujikuroi. Put plainly: Antifungal activity against Fusarium fujikuroi infected in rice plant assessed as control of bakanae disease at 18 ug/ml treated as seed treatment after 2 weeks. In kind it is functional.
The mark [11] stands for this setting: Pyricularia oryzae, 72 h, read-out: EC50.
Setting [12] is: Bipolaris oryzae, 72 h, read-out: EC50.
The mark [13] stands for this setting: Fusarium fujikuroi, 72 h, read-out: EC50.

In brackets after ≈: the same amount, converted by molar mass.

As usually defined, the EC50 is the concentration giving half of the maximal effect. On to `CC(C)[C@@H]1CC[C@H](Cc2ccc(Cl)cc2)[C@@]1(O)Cn1cncn1`, for which the EC50 in data set [1] (setting [11]) is 0.04 µg/mL (≈ 0.12 µM); in data set [2] (setting [12]), 0.2 µg/mL (≈ 0.599 µM); in data set [3] (setting [13]), 0.03 µg/mL (≈ 0.0899 µM).

In the case of `CC(C)[C@H]1CC[C@H](Cc2ccc(Cl)cc2)[C@@]1(O)Cn1cncn1`, the EC50 in data set [1] is 0.01 µg/mL (≈ 0.03 µM); in [2] (setting [12]), 0.2 µg/mL (≈ 0.599 µM); in data set [3] (setting [13]), 0.03 µg/mL (≈ 0.0899 µM).

For `CC(C)[C@H]1CC[C@@H](Cc2ccc(Cl)cc2)[C@]1(O)Cn1cncn1`, the EC50 was 1 µg/mL (≈ 3 µM) in data set [1] (setting [11]), 6 µg/mL (≈ 18 µM) in data set [2] (setting [12]) and 10 µg/mL (≈ 30 µM) in data set [3] (setting [13]).

With `CC(C)[C@@H]1CC[C@@H](Cc2ccc(Cl)cc2)[C@]1(O)Cn1cncn1`, the EC50 in [1] (setting [11]) was 0.7 µg/mL (≈ 2.1 µM); in data set [2] (setting [12]) it was 3 µg/mL (≈ 8.99 µM); in data set [3] (setting [13]), 6 µg/mL (≈ 18 µM).

Consider `CC(C)[C@@H]1CC[C@H](Cc2ccc(Cl)cc2)[C@@]1(O)Cn1cncn1` (racemic), for which the Activity in data set [4] is given as 96.5%; in [5], 98.7%; in [6], 98.3%; in data set [7], 86%; in data set [8] it was 84%; in data set [9] it was 100%. The Activity in data set [10] was 61.2%. Besides, the EC50 was determined as 0.08 µg/mL (≈ 0.24 µM) in data set [1], 0.4 µg/mL (≈ 1.2 µM) in data set [2] and 0.05 µg/mL (≈ 0.15 µM) in [3].

Consider `CC(C)[C@H]1CC[C@H](Cc2ccc(Cl)cc2)[C@@]1(O)Cn1cncn1` (racemic), for which the Activity was found to be 97.5% in data set [4]; 99.6% in [5]; 90.7% in [6]; 71% in data set [7]; 98% in data set [8]; 100% in data set [9]. The Activity in [10] was 52.1%. The EC50 in [1] turned out to be 0.03 µg/mL (≈ 0.0899 µM); in data set [2], 0.4 µg/mL (≈ 1.2 µM); in data set [3], 0.06 µg/mL (≈ 0.18 µM).

Regarding `CC(C)[C@@H]1CC[C@@H](Cc2ccc(Cl)cc2)[C@@]1(O)Cn1cncn1` (racemic), the Activity was 59.1% in data set [4]; 95.2% in [5]; 91.7% in data set [6]; 25% in data set [7]; 49% in data set [8]; 92% in data set [9]. In addition, in data set [10], the Activity was determined as 0%. The values for the EC50 in data set [1] (setting [11]), in [2] (setting [12]) and in data set [3] (setting [13]) were 0.5 µg/mL (≈ 1.5 µM), 1 µg/mL (≈ 3 µM) and 0.9 µg/mL (≈ 2.7 µM), respectively.

`CC(C)[C@H]1CC[C@@H](Cc2ccc(Cl)cc2)[C@@]1(O)Cn1cncn1` (racemic): the Activity in data set [4] turned out to be 76.8%; in data set [5], 97.5%; in data set [6], 82.5%; in data set [7], 53%; in data set [8] it was 74%; in data set [9] it was 100%. Moreover, in data set [10], the Activity was 9.7%. In addition, the EC50 in [1] (setting [11]) was found to be 0.04 µg/mL (≈ 0.12 µM); in data set [2] (setting [12]), 0.5 µg/mL (≈ 1.5 µM); in [3] (setting [13]), 0.09 µg/mL (≈ 0.27 µM).
